Assay results reported in ChEMBL document CHEMBL6182869, “Tetracationic tetraaryltetranaphtho[2,3]porphyrins for photodynamic inactivation against Staphylococcus aureus biofilm” (Eur J Med Chem, 2025).
The source made the active and inactive calls. The calls are words filed in the database; no cut-off is given here.

Experiments:
[1] = tested on: Candida albicans; experiment: Antifungal activity against Candida albicans assessed as fungal growth inhibition preincubated with compound for 15 mins followed by light irradiated with 730 nm, 40 J/cm2 and measured after 24 hrs by broth microdilution method; type: functional; conditions: light or radiation study, 24.25 h, time 1455 min
[2] = Induction of singlet oxygen quantum yield under 418 nm light irradiation by DPBF based assay; type: functional
[3] = tested on: Staphylococcus aureus; experiment: Antibacterial activity against Staphylococcus aureus assessed as bacterial growth inhibition preincubated with compound for 15 mins followed by light irradiated with 730 nm, 40 J/cm2 and measured after 24 hrs by broth microdilution method; type: functional; conditions: light or radiation study, 24.25 h, time 1455 min
[4] = Photophysical property of the compound assessed as singlet oxygen quantum yield by UV-vis spectrophotometric analysis; type: physicochemical
[5] = tested on: Escherichia coli; experiment: Antibacterial activity against Escherichia coli assessed as bacterial growth inhibition measured after 24 hrs by broth microdilution method; type: functional
[6] = tested on: Candida albicans; experiment: Antifungal activity against Candida albicans assessed as fungal growth inhibition measured after 24 hrs by broth microdilution method; type: functional
[7] = tested on: Escherichia coli; experiment: Antibacterial activity against Escherichia coli assessed as bacterial growth inhibition preincubated with compound for 15 mins followed by light irradiated with 730 nm, 40 J/cm2 and measured after 24 hrs by broth microdilution method; type: functional; conditions: light or radiation study, 24.25 h, time 1455 min
[8] = Photophysical property of the compound assessed as fluorescence quantum yield by UV-vis spectrophotometric analysis; type: physicochemical
[9] = tested on: Staphylococcus aureus; experiment: Antibacterial activity against Staphylococcus aureus assessed as bacterial growth inhibition measured after 24 hrs by broth microdilution method; type: functional
[10] = tested on: Staphylococcus aureus; experiment: Antibiofilm activity against Staphylococcus aureus assessed as increase in red fluorescence intensity at 16 uM preincubated for 15 mins followed by light irradiation with 730 nm, 40 J/cm2 by SYTO 9/PI staining based CLSM analysis; type: functional, organism-based
[11] = tested on: Staphylococcus aureus; experiment: Antibacterial activity against Staphylococcus aureus preincubated with compound for 15 mins followed by light irradiation with 730 nm, 40 J/cm2 by cell counting analysis; type: functional, organism-based; conditions: dose 0.5-8 µM
[12] = tested on: Staphylococcus aureus; experiment: Bactericidal activity against Staphylococcus aureus at 0.5 to 8 uM; type: functional, organism-based; conditions: dose 0.5-8 µM
[13] = tested on: Staphylococcus aureus; experiment: Antibacterial activity against Staphylococcus aureus assessed as log reduction in bacterial viability at 8 uM preincubated with compound for 15 mins followed by light irradiation with 730 nm, 40 J/cm2 by cell counting analysis relative to control; type: functional; conditions: 0.25 h
[14] = Dark cytotoxicity against human HaCaT cells assessed as cell viability at 16 uM preincubated for 15 mins by MTT assay; type: toxicity, cell-based; conditions: read-out: Activity
[15] = tested on: Staphylococcus aureus; experiment: Antibacterial activity against Staphylococcus aureus assessed as eradication rate at 8 uM preincubated with compound for 15 mins followed by light irradiation with 730 nm, 40 J/cm2 relative to control; type: functional; conditions: 0.25 h
[16] = tested on: Staphylococcus aureus; experiment: Antibiofilm activity against Staphylococcus aureus assessed as disruption of mature biofilm structure at 16 uM preincubated for 15 mins followed by light irradiation with 730 nm, 40 J/cm2 by crystal violet staining based analysis; type: functional, organism-based
[17] = tested on: Staphylococcus aureus; experiment: Antibiofilm activity against Staphylococcus aureus assessed as reduction in green fluorescence intensity at 16 uM preincubated for 15 mins followed by light irradiation with 730 nm, 40 J/cm2 by SYTO 9/PI staining based CLSM analysis; type: functional, organism-based
[18] = tested on: HaCaT; experiment: Phototoxicity in human HaCaT cells assessed as cell viability at 16 uM preincubated for 15 mins by MTT assay; type: functional, cell-based
[19] = tested on: Staphylococcus aureus; experiment: Antibiofilm activity against Staphylococcus aureus assessed as disruption of mature biofilm rate at 16 uM preincubated for 15 mins followed by light irradiation with 730 nm, 40 J/cm2 by crystal violet staining based analysis relative to control; type: functional; conditions: 0.25 h
[20] = tested on: Staphylococcus aureus; experiment: Antibacterial activity against Staphylococcus aureus assessed as reduction in viable bacteria at 0.5 uM preincubated with compound for 15 mins followed by light irradiation with 730 nm, 40 J/cm2 by cell counting analysis relative to control; type: functional; conditions: 0.25 h
[21] = tested on: HaCaT; experiment: Phototoxicity in human HaCaT cells assessed as cell viability at 16 uM preincubated for 15 mins followed by light irradiation with 730 nm, 40 J/cm2 by MTT assay; type: functional, cell-based

CC[N+](C)(CC)CCCCCOc1ccc(-c2c3nc(c(-c4ccc(OCCCCC[N+](C)(CC)CC)cc4)c4[nH]c(c(-c5ccc(OCCCCC[N+](C)(CC)CC)cc5)c5nc(c(-c6ccc(OCCCCC[N+](C)(CC)CC)cc6)c6[nH]c2c2cc7ccccc7cc62)-c2cc6ccccc6cc2-5)c2cc5ccccc5cc42)-c2cc4ccccc4cc2-3)cc1.[Br-].[Br-].[Br-].[Br-]
MIC [1]: 64 µM
Activity [2]: Active
MIC [3]: 16 µM
Activity [4]: 0.67
MIC [5]: > 64 µM
MIC [6]: 64 µM
MIC [7]: > 64 µM
Activity [8]: 0.07
MIC [9]: 32 µM

C[N+](C)(C)CCCCCOc1ccc(-c2c3nc(c(-c4ccc(OCCCCC[N+](C)(C)C)cc4)c4[nH]c(c(-c5ccc(OCCCCC[N+](C)(C)C)cc5)c5nc(c(-c6ccc(OCCCCC[N+](C)(C)C)cc6)c6[nH]c2c2cc7ccccc7cc62)-c2cc6ccccc6cc2-5)c2cc5ccccc5cc42)-c2cc4ccccc4cc2-3)cc1.[Br-].[Br-].[Br-].[Br-]
MIC [1]: 64 µM
Activity [2]: Active
MIC [3]: 16 µM
Activity [4]: 0.47
MIC [5]: > 64 µM
MIC [6]: 64 µM
MIC [7]: > 64 µM
Activity [8]: 0.07
MIC [9]: 64 µM

[Br-].[Br-].[Br-].[Br-].c1cc[n+](CCCCOc2ccc(-c3c4nc(c(-c5ccc(OCCCC[n+]6ccccc6)cc5)c5[nH]c(c(-c6ccc(OCCCC[n+]7ccccc7)cc6)c6nc(c(-c7ccc(OCCCC[n+]8ccccc8)cc7)c7[nH]c3c3cc8ccccc8cc73)-c3cc7ccccc7cc3-6)c3cc6ccccc6cc53)-c3cc5ccccc5cc3-4)cc2)cc1
MIC [1]: 32 µM
Activity [2]: Active
MIC [3]: 32 µM
Activity [4]: 0.45
MIC [5]: > 64 µM
MIC [6]: 64 µM
MIC [7]: > 64 µM
Activity [8]: 0.08
MIC [9]: 64 µM

C[N+](C)(C)CCCOc1ccc(-c2c3nc(c(-c4ccc(OCCC[N+](C)(C)C)cc4)c4[nH]c(c(-c5ccc(OCCC[N+](C)(C)C)cc5)c5nc(c(-c6ccc(OCCC[N+](C)(C)C)cc6)c6[nH]c2c2cc7ccccc7cc62)-c2cc6ccccc6cc2-5)c2cc5ccccc5cc42)-c2cc4ccccc4cc2-3)cc1.[Br-].[Br-].[Br-].[Br-]
Activity [10]: Active
MIC [1]: 64 µM
Activity [11]: Dose-dependent-effect
Activity [12]: Active
log(activity) [13]: 3
viability at 0.25 h, 16 µM [14]: > 80%
Activity [2]: Active
Activity [15]: >99.9%
Activity [16]: Active
MIC [3]: 8 µM
Activity [17]: Active
Activity [4]: 0.37
Activity [18]: inactive
MIC [5]: > 64 µM
Activity [19]: 72.6%
MIC [6]: 64 µM
Activity [20]: >75%
Activity [21]: inactive
MIC [7]: > 64 µM
Activity [8]: 0.07
MIC [9]: 32 µM

[Br-].[Br-].[Br-].[Br-].c1cc[n+](CCCCCOc2ccc(-c3c4nc(c(-c5ccc(OCCCCC[n+]6ccccc6)cc5)c5[nH]c(c(-c6ccc(OCCCCC[n+]7ccccc7)cc6)c6nc(c(-c7ccc(OCCCCC[n+]8ccccc8)cc7)c7[nH]c3c3cc8ccccc8cc73)-c3cc7ccccc7cc3-6)c3cc6ccccc6cc53)-c3cc5ccccc5cc3-4)cc2)cc1
MIC [1]: 32 µM
Activity [2]: Active
MIC [3]: 32 µM
Activity [4]: 0.5
MIC [5]: > 64 µM
MIC [6]: 64 µM
MIC [7]: > 64 µM
Activity [8]: 0.08
MIC [9]: 64 µM

C[N+](C)(C)CCCCCCOc1ccc(-c2c3nc(c(-c4ccc(OCCCCCC[N+](C)(C)C)cc4)c4[nH]c(c(-c5ccc(OCCCCCC[N+](C)(C)C)cc5)c5nc(c(-c6ccc(OCCCCCC[N+](C)(C)C)cc6)c6[nH]c2c2cc7ccccc7cc62)-c2cc6ccccc6cc2-5)c2cc5ccccc5cc42)-c2cc4ccccc4cc2-3)cc1.[Br-].[Br-].[Br-].[Br-]
MIC [1]: 64 µM
Activity [2]: Active
MIC [3]: 16 µM
Activity [4]: 0.48
MIC [5]: > 64 µM
MIC [6]: 64 µM
MIC [7]: > 64 µM
Activity [8]: 0.07
MIC [9]: 64 µM
